Data from patent US20260355199A1, “COMPOSITIONS AND METHODS FOR TREATING OR PREVENTING NONALCOHOLIC STEATOHEPATITIS (NASH), ANOREXIA, DEPRESSION, ENDOMETRIOSIS, AND OTHER DISEASES OR DISORDERS” (priority 2022, published 2026).
Entries after “also recorded” stand apart in the source; their conditions may differ.

How the values were obtained:
murine model of NASH = experiment: High fat high sugar diet-induced murine model of NASH; type: in vivo, mouse; settings: for fasting glucose / glucose tolerance: week 12; for plasma AST: week 13
Protocol: As TET3-positive macrophages were also detected in human NASH (FIG. 24B), studies were performed to investigate whether depleting these macrophages would reduce NASH progression. Despite the high efficiency (up to 90%) of the LysM-cre strain in manipulating macrophages originated from myeloid progenitors including those in the peritoneal cavity, peripheral blood and bone marrow, only ~40% of tissue resident macrophages derived from yolk sac (e.g., those in the liver and the spleen red pulp) were affected (Shi et al., 2018, Methods Mol Biol, 1784:263-275). While the inefficacy of the LysM-cre strain in depleting tissue resident macrophages has precluded using the Mye-Tet3 ko mice, potential effects of Bobcat339 in steatosis, inflammation, and fibrosis were assessed using a high fat high sugar diet-induced murine model of NASH (Ishimoto et al., 2013, Hepatology, 58:1632-1643; Kroh et al., 2020, Gastroenterol Res Pract, 7347068; Baiges-Gaya et al., 2021, J Nutr Biochem, 89:108559). As shown schematically in FIG. 29A, mice were placed on a standard chow diet (CD) (control group) or a western diet with 10% sucrose in drinking water (WD) for 8 weeks to induce an early NASH phenotype (Kroh et al., 2020, Gastroenterol Res Pract, 7347068). Then, these mice were therapeutically dosed intravenously once a week from week 8 through week 11 with either 2.5 mg/kg Bobcat339 (treatment group) or vehicle (model group) for a total of 13 weeks on diets. Mice were euthanized following a 12 h overnight fasting, and plasma and liver were harvested for analyses.
Then, these mice were therapeutically dosed intravenously once a week from week 8 through week 11 with either 3 mg/kg Bobcat339 (treatment group) or vehicle (model group) for a total of 13 weeks on diets. At the end of the study, mice were euthanized following a 12 h overnight fasting, and plasma and liver were harvested for analyses.
Male C57BL/6J mice of 6-weeks old were randomly divided into three groups, with each containing 5 animals. The control group were fed a standard chow diet (CD). The model group and the treatment group were fed a western diet (WD) (40 kcal % fat, 20 kcal % fructose, and 2 kcal % cholesterol, Research Diets, D09100301) supplemented with 10% sucrose in drinking water provided ad libitum. In the treatment group, Bobcat339 administration was initiated following 8 weeks of WD by tail vein injection at 2.5 mg/kg body weight once a week for 4 weeks. The control group and the model group received vehicle (DMSO) tail vein injections. […] After a total of 13 weeks on diets, mice were sacrificed following a 12 h overnight fasting, and plasma and liver were harvested for analyses.
GTT were performed following 16 h overnight fasting. Each animal received an i.p. injection of 2 g/kg of glucose (Sigma-Aldrich, G5767) in sterile saline. Blood glucose concentrations were measured using Contour next blood glucose meter (Ascensia Diabetes Care) via tail vein bleeding at the indicated time points after injection.
These were assessed using Triglyceride Content Assay Kit (Solarbio, BC0625) and Hydroxyproline Assay Kit (Sigma-Aldrich, MAK008-1KT), respectively.
Mouse liver samples were collected and fixed at 4 °C with 4% of phosphate buffered paraformaldehyde for 24 h. Fixed tissue specimens were embedded in paraffin and cut into […] tissue sections for histopathological analysis. Tissue sections were stained with Hematoxylin-Eosin according to standard protocols. For Sirius Red/Fast Green staining, slides were deparaffinized by heating at 65 °C for 60 min, followed by xylene wash 3 times 5 min each. The slides were then rehydrated in 100%, 90%, 80% and 70% ethanol for 5 min each, followed by ddH2O wash 2 times 5 min each. Then they were incubated in 0.04% Fast Green (Sigma-Aldrich, F7258) in saturated [COMPOUND LEFT OUT] for 15 min, washed with distilled water and then incubated in 0.1% Fast Green and 0.08% Sirius Red (Sigma-Aldrich, 365546) in saturated [COMPOUND LEFT OUT] for 30 min. […]

TET2 = TET2 protein in human MDMs; type: cell-based; settings: 24 h
Protocol: Bobcat339 Treatment of Cultured Cells Bobcat339 powder (Sigma-Aldrich, SML2611) was freshly dissolved in DMSO at a concentration of 5 mM and filtered through a 0.22 micron. Cells grown at a density of 80-90% were incubated in growth media with vehicle (DMSO) or Bobcat339 at a final concentration of 10 μM for 24 h, followed by RNA and protein extraction.
For cultured MDMs, cells were primed with CM-Endo or TGF-β1 (PeproTech, 100-21) for 36-48 h (to increase TET3 expression) before Bobcat339 treatment.
Cells were homogenized in situ using a pipette tip in 2×SDS-sample buffer with 10% β-mercaptoethanol at RT followed by heating at 100 °C for 5 min with occasional vortexing. The samples were loaded onto a 4-15% gradient SDS gel (Bio-rad, 456-8086) (10 μL/well) and transferred to nitrocellulose membranes, followed by Western blot analysis. The antibodies used were anti-TET3 (diluted at 1:1000, GeneTex, GTX121453 for human; diluted at 1:1000, Active Motif, 61395 for mouse), anti-TET2 (diluted at 1:1000, Proteintech, 21207-1-AP for human/mouse), anti-TGF-β1 (diluted at 1:1000, Abcam, ab215715 for human), anti-Lin28A (diluted at 1:1000, Cell Signaling, 3978S), and HRP-conjugated anti-GAPDH (dilution 1:5000; Proteintech, HRP-60004). The secondary antibody was HRP-linked Anti-rabbit IgG (dilution 1:10,000; Rockland, 611-1322).

Nc1nc(=O)n(-c2cccc(-c3ccccc3)c2)cc1Cl [Bobcat339, 4-Amino-1-[1,1′-biphenyl]-3-yl-5-chloro-2(1H)-pyrimidinone]
NAS score (murine model of NASH; 2.5 mg/kg i.v. once a week): reduced NAS scores | TET3-expressing macrophages in liver (murine model of NASH; 2.5 mg/kg i.v. once a week): depleted after Bobcat339 treatment | fibrosis stage (murine model of NASH; 2.5 mg/kg i.v. once a week): a significant reduction in both the fibrosis stage and the hydroxyproline content | histological severity of steatosis and fibrosis (murine model of NASH; 2.5 mg/kg i.v. once a week): significantly reduced the severity of both steatosis and fibrosis | liver hydroxyproline content (murine model of NASH; 2.5 mg/kg i.v. once a week): a significant reduction in both the fibrosis stage and the hydroxyproline content | liver triglycerides (murine model of NASH; 2.5 mg/kg i.v. once a week): normalized liver triglycerides | liver-to-body weight ratio (murine model of NASH; 2.5 mg/kg i.v. once a week): decreased liver-to-body weight ratio | fasting glucose (murine model of NASH; 2.5 mg/kg i.v. once a week): a significant improvement | glucose tolerance (murine model of NASH; 2.5 mg/kg i.v. once a week): a significant improvement | plasma AST (murine model of NASH; 2.5 mg/kg i.v. once a week): normalized this marker | IL-1b and IL-6 in CD163+ macrophage-enriched areas of liver (murine model of NASH; 3 mg/kg i.v. once a week): reduced the expression of IL-1b and IL-6 | NAS score (murine model of NASH; 3 mg/kg i.v. once a week): reduced NAS scores | TET3-overexpressing CD163+ macrophages in liver (murine model of NASH; 3 mg/kg i.v. once a week): significantly reduced after Bobcat339 treatment | fibrosis stage (murine model of NASH; 3 mg/kg i.v. once a week): a significant reduction in both the fibrosis stage and hydroxyproline content | histological severity of steatosis and fibrosis (murine model of NASH; 3 mg/kg i.v. once a week): significantly reduced the severity of both steatosis and fibrosis | hydroxyproline content (murine model of NASH; 3 mg/kg i.v. once a week): a significant reduction in both the fibrosis stage and hydroxyproline content | liver triglycerides (murine model of NASH; 3 mg/kg i.v. once a week): normalized liver triglycerides | liver-to-body weight ratio (murine model of NASH; 3 mg/kg i.v. once a week): decreased liver-to-body weight ratio | fasting glucose (murine model of NASH; 3 mg/kg i.v. once a week): a significant improvement | glucose tolerance (murine model of NASH; 3 mg/kg i.v. once a week): a significant improvement | plasma AST (murine model of NASH; 3 mg/kg i.v. once a week): normalized this marker | TET2 protein level (TET2; 10 μM): not affected; also recorded: not TET2 | TET2 protein level (TET2; 10 mM (so in the source)): not significantly affected
